Like-named read-outs stand apart in the source and are kept apart here.
How the values were obtained:
[1] = biological target: 5-HT2A receptor; details: read-out: Ki vs. [3H]ketanserin, ref Stevenson et al. 2000; cited from earlier work
[2] = tested on: head twitch response (5-HT2A receptor-mediated); experiment: Head twitch response; assay type: in vivo, C57BL/6J mice; details: for activity in the HTR assay (in words): C57BL/6J mice, within the dose range tested; for ED50: Mus musculus, ip
[3] = humans, ref Shulgin and Shulgin 2004, cited from earlier work
[4] = tested on: recombinant human 5-HT2A receptors; details: ref Arunotayanun et al. 2013; cited from earlier work
[5] = tested on: DOM discriminative stimulus; details: ref Gatch et al. 2017; cited from earlier work
[6] = tested on: 5-MeO-DMT discriminative stimulus; details: ref Glennon et al. 1980a; cited from earlier work
[7] = biological target: rat 5-HT2A receptor; details: read-out: Ki, rat 5-HT2A receptor; [3H]ketanserin; ref Gallaher et al. (1993); cited from earlier work
[8] = read-out: ED50 (95% CI) (mg/kg)
[9] = read-out: ED50 (95% CI) (μmol/kg)
[10] = 0.875 mg/kg IP, duration 30 min
[11] = HTR, IP, male C57BL/6J mice, analysis block 5–30 min depending on drug

CCN(CC)CCc1c(-c2ccccc2)[nH]c2ccccc12 [2-phenyl-N,N-diethyltryptamine]
Ki [1]: 2.8 nM

CN(C)CCc1c(-c2ccccc2)[nH]c2ccccc12 [2-phenyl-N,N-dimethyltryptamine]
Ki [1]: 4.4 nM

C=CCN(CC=C)CCc1c[nH]c2ccc(Br)cc12 [5-Br-DALT, 5-bromo-N,N-diallyltryptamine]
HTR Counts (mean ± SEM) ([2]; 3.5 mg/kg IP, duration 30 min): 5.0 ± 0.3
HTR Counts (mean ± SEM) ([2]; 7 mg/kg IP, duration 30 min): 10.8 ± 2.7
HTR Counts (mean ± SEM) ([2]; 14 mg/kg IP, duration 30 min): 8.6 ± 2.7
HTR Counts (mean ± SEM) ([2]; 28 mg/kg IP, duration 30 min): 1.4 ± 0.4
HTR Counts (mean ± SEM) ([2]; 56 mg/kg IP, duration 30 min): 1.4 ± 1.4
activity in the HTR assay (in words) ([2]; IP): active
ED50 [2, 8]: 4.8 mg/kg
ED50 [2, 9]: 13.5 µmol/kg

C=CCN(CC=C)CCc1c[nH]c2ccc(F)cc12 [5-F-DALT, 5-fluoro-N,N-diallyltryptamine]
HTR Counts (mean ± SEM) [2, 10]: 9.8 ± 2.6
HTR Counts (mean ± SEM) ([2]; 1.75 mg/kg IP, duration 30 min): 21.0 ± 5.7
HTR Counts (mean ± SEM) ([2]; 3.5 mg/kg IP, duration 30 min): 36.0 ± 6.8
HTR Counts (mean ± SEM) ([2]; 7 mg/kg IP, duration 30 min): 26.8 ± 7.1
HTR Counts (mean ± SEM) ([2]; 14 mg/kg IP, duration 30 min): 21.0 ± 4.0
activity in the HTR assay (in words) ([2]; IP): active
ED50 [2, 8]: 1.58 mg/kg
ED50 [2, 9]: 5.4 µmol/kg

C=CCN(CC=C)CCc1c[nH]c2ccc(OC)cc12 [5-MeO-DALT, 5-methoxy-N,N-diallyltryptamine]
HTR Counts (mean ± SEM) ([2]; 1.75 mg/kg IP, duration 20 min): 6.6 ± 1.0
HTR Counts (mean ± SEM) ([2]; 3.5 mg/kg IP, duration 20 min): 19.8 ± 1.5
HTR Counts (mean ± SEM) ([2]; 7 mg/kg IP, duration 20 min): 8.8 ± 2.6
HTR Counts (mean ± SEM) ([2]; 14 mg/kg IP, duration 20 min): 8.0 ± 4.9
activity in the HTR assay (in words) ([2]; IP): active
ED50 [2, 8]: 2.25 mg/kg
ED50 [2, 9]: 7.3 µmol/kg
duration of psychoactive effects ([3]; oral 12–20 mg): 2 to 4 h
oral doses producing psychoactive effects ([3]; oral): 12 to 20 mg
functional activity at recombinant human 5-HT2A receptors [4]: agonist
substitution in rats trained to discriminate DOM [5]: full substitution

CCc1cccc2c(CCN(C)C)c[nH]c12 [7-Ethyl-DMT]
substitution in rats trained to discriminate 5-MeO-DMT from vehicle [6]: partial substitution

C=CCN(CC=C)CCc1c[nH]c2ccccc12 [DALT, N,N-diallyltryptamine]
HTR Counts (mean ± SEM) [2, 10]: 8.2 ± 2.8
HTR Counts (mean ± SEM) ([2]; 1.75 mg/kg IP, duration 30 min): 6.8 ± 2.6
HTR Counts (mean ± SEM) ([2]; 3.5 mg/kg IP, duration 30 min): 14.2 ± 4.3
HTR Counts (mean ± SEM) ([2]; 7 mg/kg IP, duration 30 min): 21.8 ± 4.4
HTR Counts (mean ± SEM) ([2]; 14 mg/kg IP, duration 30 min): 20.6 ± 2.7
activity in the HTR assay (in words) ([2]; IP): active
ED50 (95% CI) (mg/kg) [2, 11]: 3.42 (2.44–4.79) mg/kg
ED50 (95% CI) (μmol/kg) [2, 11]: 12.3 (8.8–17.3) μmol/kg

CN(C)CCc1c[nH]c2ccc(O)cc12 [bufotenine]
Ki [7]: 520 nM

CN(C)CCc1c[nH]c2cccc(O)c12 [psilocin, 4-hydroxy-DMT]
Ki [7]: 5100 nM
